According to US12581252B2, “Substituted pyrrolo[3,4-b]pyridines as PI3K-α inhibitors” (Relay Therapeutics, Inc., priority 2020, dated 2026):

Target: H1047R PIK3CA enzyme (Homo sapiens, UniProt P42336, H1047R)
Assay: ADP-Glo Biochemical PIK3CA Kinase Assay

H1047R PIK3CA enzyme, sequence (P42336 whole entry H1047R): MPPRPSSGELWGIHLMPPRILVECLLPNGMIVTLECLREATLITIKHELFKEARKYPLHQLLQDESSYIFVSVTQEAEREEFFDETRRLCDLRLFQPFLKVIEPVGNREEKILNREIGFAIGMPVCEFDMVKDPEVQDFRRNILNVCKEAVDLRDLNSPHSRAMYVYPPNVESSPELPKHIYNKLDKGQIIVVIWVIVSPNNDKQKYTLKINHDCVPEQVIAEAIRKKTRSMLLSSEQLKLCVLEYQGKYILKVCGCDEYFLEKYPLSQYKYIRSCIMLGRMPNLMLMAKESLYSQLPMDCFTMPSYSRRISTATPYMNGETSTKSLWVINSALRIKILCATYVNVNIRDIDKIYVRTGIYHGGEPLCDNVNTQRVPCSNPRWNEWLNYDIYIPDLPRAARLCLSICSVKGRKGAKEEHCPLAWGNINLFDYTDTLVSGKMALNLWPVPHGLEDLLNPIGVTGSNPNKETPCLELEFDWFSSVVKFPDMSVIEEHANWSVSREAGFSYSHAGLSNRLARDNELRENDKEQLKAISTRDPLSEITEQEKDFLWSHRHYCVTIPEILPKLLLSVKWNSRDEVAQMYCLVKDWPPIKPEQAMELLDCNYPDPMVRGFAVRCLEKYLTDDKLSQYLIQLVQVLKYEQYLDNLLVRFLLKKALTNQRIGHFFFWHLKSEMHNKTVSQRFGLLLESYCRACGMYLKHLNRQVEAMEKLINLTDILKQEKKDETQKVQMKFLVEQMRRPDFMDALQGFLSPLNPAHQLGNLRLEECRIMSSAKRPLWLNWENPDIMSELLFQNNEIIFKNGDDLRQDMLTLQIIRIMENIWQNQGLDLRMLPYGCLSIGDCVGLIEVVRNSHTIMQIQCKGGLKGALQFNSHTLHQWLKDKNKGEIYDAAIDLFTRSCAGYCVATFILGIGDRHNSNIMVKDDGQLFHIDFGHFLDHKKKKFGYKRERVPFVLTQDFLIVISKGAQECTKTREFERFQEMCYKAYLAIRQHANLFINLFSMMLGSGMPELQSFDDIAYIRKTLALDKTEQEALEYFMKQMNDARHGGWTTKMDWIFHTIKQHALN
H1047R PIK3CA enzyme, sequence (P27986 whole entry partner): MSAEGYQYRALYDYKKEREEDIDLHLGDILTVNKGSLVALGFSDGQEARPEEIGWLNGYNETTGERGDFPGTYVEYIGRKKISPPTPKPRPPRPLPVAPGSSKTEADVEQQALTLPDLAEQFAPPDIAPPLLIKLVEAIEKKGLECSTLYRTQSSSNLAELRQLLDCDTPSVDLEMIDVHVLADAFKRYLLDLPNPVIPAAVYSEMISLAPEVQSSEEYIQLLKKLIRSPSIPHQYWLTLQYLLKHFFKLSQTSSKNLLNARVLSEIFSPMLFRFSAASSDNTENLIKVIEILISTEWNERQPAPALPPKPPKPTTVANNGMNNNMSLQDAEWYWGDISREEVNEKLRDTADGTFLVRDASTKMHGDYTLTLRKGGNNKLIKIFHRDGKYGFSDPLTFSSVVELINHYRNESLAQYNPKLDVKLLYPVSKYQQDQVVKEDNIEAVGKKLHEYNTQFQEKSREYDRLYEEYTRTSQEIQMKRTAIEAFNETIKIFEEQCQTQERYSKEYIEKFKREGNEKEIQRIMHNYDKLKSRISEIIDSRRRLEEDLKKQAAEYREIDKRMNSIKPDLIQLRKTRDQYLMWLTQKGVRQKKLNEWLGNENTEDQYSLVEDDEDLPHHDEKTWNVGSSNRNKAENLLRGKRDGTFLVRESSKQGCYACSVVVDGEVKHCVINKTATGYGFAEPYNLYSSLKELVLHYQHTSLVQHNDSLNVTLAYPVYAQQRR

Structure (SMILES) | IC50 [µM]
Cn1nc(C(F)F)cc1-c1cc(NC(=O)c2cc(F)cc(C(F)(F)F)c2)c2c(c1)C(=O)N[C@@H]2c1cc(F)ccc1Cl [Compound I-1879] | 1 to 10
N#Cc1cc(-c2cc(NC(=O)c3cc(F)cc(C(F)(F)F)c3)c3c(c2)C(=O)N[C@@H]3c2cc(F)ccc2Cl)cn2ncnc12 [Compound I-1880] | 0.5 to 1
Cn1nc(C(F)F)cc1-c1cc(NC(=O)c2cc(F)cc(C(F)(F)F)c2)c2c(c1)C(=O)N[C@H]2c1cc(F)ccc1Cl [Compound I-1881] | ≤ 0.1
N#Cc1cc(-c2cc(NC(=O)c3cc(F)cc(C(F)(F)F)c3)c3c(c2)C(=O)N[C@H]3c2cc(F)ccc2Cl)cn2ncnc12 [Compound I-1882] | ≤ 0.1
N#Cc1cnc2cc(F)c(-c3cc(NC(=O)c4cc(F)cc(C(F)(F)F)c4)c4c(c3)C(=O)N[C@@H]4c3cc(F)ccc3Cl)cn12 [Compound I-1883] | 1 to 10
N#Cc1cnc2cc(F)c(-c3cc(NC(=O)c4cc(F)cc(C(F)(F)F)c4)c4c(c3)C(=O)N[C@H]4c3cc(F)ccc3Cl)cn12 [Compound I-1884] | ≤ 0.1
N#CC1(n2cc(-c3cc(NC(=O)c4cc(F)cc(C(F)(F)F)c4)c4c(c3)C(=O)N[C@@H]4c3cc(F)ccc3Cl)cn2)CC1 [Compound I-1885] | 0.5 to 1
N#CC1(n2cc(-c3cc(NC(=O)c4cc(F)cc(C(F)(F)F)c4)c4c(c3)C(=O)N[C@H]4c3cc(F)ccc3Cl)cn2)CC1 [Compound I-1886] | ≤ 0.1
N#CCOc1cc(NC(=O)c2cc(F)cc(C(F)(F)F)c2)c2c(c1)C(=O)N[C@@H]2c1cc(F)ccc1Cl [Compound I-1887] | 0.5 to 1
N#CCOc1cc(NC(=O)c2cc(F)cc(C(F)(F)F)c2)c2c(c1)C(=O)N[C@H]2c1cc(F)ccc1Cl [Compound I-1888] | ≤ 0.1
N#Cc1nn(C(F)F)cc1-c1cc(NC(=O)c2cc(F)cc(C(F)(F)F)c2)c2c(c1)C(=O)N[C@@H]2c1cc(F)ccc1Cl [Compound I-1889] | 1 to 10
N#Cc1nn(C(F)F)cc1-c1cc(NC(=O)c2cc(F)cc(C(F)(F)F)c2)c2c(c1)C(=O)N[C@H]2c1cc(F)ccc1Cl [Compound I-1890] | ≤ 0.1
O=C1NC(c2cc(F)ccc2Cl)c2c(O)cc(-c3ccc4ncnn4c3)cc21 (centres unmarked) [Compound I-1891] | 1 to 10
CSc1cc(-c2ccc3ncnn3c2)cc2c1C(c1cc(F)ccc1Cl)NC2=O (centres unmarked) [Compound I-1892] | 10 to 100
O=C1NC(c2cc(F)ccc2Cl)c2c(Nc3c[nH]c4ccccc34)cc(Br)cc21 (centres unmarked) [Compound I-1896] | 10 to 100
O=C(Nc1ccccc1)c1cc(-c2ccc3ncnn3c2)cc2c1C(c1cc(F)ccc1Cl)NC2=O (centres unmarked) [Compound I-1897] | 10 to 100
CS(=O)(=O)Nc1cc(-c2ccc3ncnn3c2)cc2c1C(c1cc(F)ccc1Cl)NC2=O (centres unmarked) [Compound I-1898] | 1 to 10
N#CC1(C(=O)Nc2cc(-c3ccc4ncnn4c3)cc3c2C(c2cc(F)ccc2Cl)NC3=O)CCCC1 (centres unmarked) [Compound I-1899] | 10 to 100
O=C1NC(c2cc(F)ccc2Cl)c2c(NC(=O)C3CNCCO3)cc(-c3ccc4ncnn4c3)cc21 (centres unmarked) [Compound I-1900] | 10 to 100
O=C1NC(c2cc(F)ccc2Cl)c2c(NC(=O)N3CCC(C(F)(F)F)C3)cc(-c3ccc4ncnn4c3)cc21 (centres unmarked) [Compound I-1903] | 1 to 10
O=C1NC(c2cc(F)ccc2Cl)c2c(NC(=O)N3CCC(O)(C(F)(F)F)C3)cc(-c3ccc4ncnn4c3)cc21 (centres unmarked) [Compound I-1904] | 10 to 100
CC(O)c1cc(-c2ccc3ncnn3c2)cc2c1C(c1cc(F)ccc1Cl)NC2=O (centres unmarked) [Compound I-1907] | 10 to 100

Structure (SMILES) | IC50 [µM]
O=C1NC(c2cc(F)ccc2Cl)c2c1cc(-c1ccc3ncnn3c1)cc2N1CCNCC1 (centres unmarked) [Compound I-1908] | 10 to 100
CC(=O)N1CC(C2NC(=O)c3cccc(NC(=O)c4cc(F)cc(C(F)(F)F)c4)c32)C1 (centres unmarked) [Compound I-1909] | 10 to 100
O=C1NC(c2cc(F)ccc2Cl)c2c(NC(=O)C3COCCO3)cc(-c3ccc4ncnn4c3)cc21 (centres unmarked) [Compound I-1910] | 10 to 100
O=C1NC(c2cc(F)ccc2Cl)c2c1cc(-c1ccc3ncnn3c1)cc2N1CCOCC1 (centres unmarked) [Compound I-1911] | 10 to 100
O=C(CC1CCC(O)CC1)Nc1cc(-c2ccc3ncnn3c2)cc2c1C(c1cc(F)ccc1Cl)NC2=O (centres unmarked) [Compound I-1913] | 10 to 100
O=C1NC(c2cc(F)ccc2Cl)c2c(CC(=O)N3CCc4ccccc43)cc(-c3ccc4ncnn4c3)cc21 (centres unmarked) [Compound I-1914] | 10 to 100
CC1(C2NC(=O)c3cccc(NC(=O)c4cc(F)cc(C(F)(F)F)c4)c32)CCCCC1 (centres unmarked) [Compound I-1917] | 10 to 100
O=C(Nc1cc(-c2cn(C(F)F)cn2)cc2c1[C@@H](c1cc(F)ccc1Cl)NC2=O)c1cc(F)cc(C(F)(F)F)c1 [Compound I-1918] | 1 to 10
O=C(Nc1cc(-c2cn(C(F)F)cn2)cc2c1[C@H](c1cc(F)ccc1Cl)NC2=O)c1cc(F)cc(C(F)(F)F)c1 [Compound I-1919] | ≤ 0.1
N#Cc1c(-c2cc(NC(=O)c3cc(F)cc(C(F)(F)F)c3)c3c(c2)C(=O)N[C@@H]3c2cc(F)ccc2Cl)cnn1C(F)F [Compound I-1920] | 1 to 10
N#Cc1c(-c2cc(NC(=O)c3cc(F)cc(C(F)(F)F)c3)c3c(c2)C(=O)N[C@H]3c2cc(F)ccc2Cl)cnn1C(F)F [Compound I-1921] | ≤ 0.1
N#Cc1cnc2cnc(-c3cc(NC(=O)c4cc(F)cc(C(F)(F)F)c4)c4c(c3)C(=O)N[C@@H]4c3cc(F)ccc3Cl)cn12 [Compound I-1922] | 1 to 10
N#Cc1cnc2cnc(-c3cc(NC(=O)c4cc(F)cc(C(F)(F)F)c4)c4c(c3)C(=O)N[C@H]4c3cc(F)ccc3Cl)cn12 [Compound I-1923] | ≤ 0.1
O=C(Nc1cc(-c2ccc3nnc(C(F)F)n3c2)cc2c1[C@@H](c1cc(F)ccc1Cl)NC2=O)c1cc(F)cc(C(F)(F)F)c1 [Compound I-1924] | 1 to 10
O=C(Nc1cc(-c2ccc3nnc(C(F)F)n3c2)cc2c1[C@H](c1cc(F)ccc1Cl)NC2=O)c1cc(F)cc(C(F)(F)F)c1 [Compound I-1925] | ≤ 0.1
O=C(Nc1cc(-c2cc(F)n3ncnc3c2)cc2c1[C@@H](c1cc(F)ccc1Cl)NC2=O)c1cc(F)cc(C(F)(F)F)c1 [Compound I-1926] | 1 to 10
O=C(Nc1cc(-c2cc(F)n3ncnc3c2)cc2c1[C@H](c1cc(F)ccc1Cl)NC2=O)c1cc(F)cc(C(F)(F)F)c1 [Compound I-1927] | ≤ 0.1
O=C(Nc1cc(-c2ccc3nc(C(F)F)cn3c2)cc2c1[C@@H](c1cc(F)ccc1Cl)NC2=O)c1cc(F)cc(C(F)(F)F)c1 [Compound I-1928] | 1 to 10
O=C(Nc1cc(-c2ccc3nc(C(F)F)cn3c2)cc2c1[C@H](c1cc(F)ccc1Cl)NC2=O)c1cc(F)cc(C(F)(F)F)c1 [Compound I-1929] | ≤ 0.1
O=C(Nc1cc(-c2ccc(C(F)F)nc2)cc2c1C(c1cc(F)ccc1Cl)NC2=O)c1cc(F)cc(C(F)(F)F)c1 (centres unmarked) [Compound I-1932] | 0.1 to 0.5
O=C(Nc1cc(-c2ccnc(C(F)F)c2)cc2c1C(c1cc(F)ccc1Cl)NC2=O)c1cc(F)cc(C(F)(F)F)c1 (centres unmarked) [Compound I-1933] | ≤ 0.1
O=C(Nc1cc(-c2cnc3ncc(Cl)n3c2)cc2c1C(c1cc(F)ccc1Cl)NC2=O)c1cc(F)cc(C(F)(F)F)c1 (centres unmarked) [Compound I-1934] | ≤ 0.1

Structure (SMILES) | IC50 [µM]
O=C(Nc1cc(-c2ccc3ncc(C(F)F)n3c2)cc2c1[C@@H](c1cc(F)ccc1Cl)NC2=O)c1cc(F)cc(C(F)(F)F)c1 [Compound I-1936] | 0.5 to 1
O=C(Nc1cc(-c2ccc3ncc(C(F)F)n3c2)cc2c1[C@H](c1cc(F)ccc1Cl)NC2=O)c1cc(F)cc(C(F)(F)F)c1 [Compound I-1937] | ≤ 0.1
O=C(Nc1cc(-c2ccc3nc(C(F)F)nn3c2)cc2c1C(c1cc(F)ccc1Cl)NC2=O)c1cc(F)cc(C(F)(F)F)c1 (centres unmarked) [Compound I-1938] | ≤ 0.1
O=C1NC(c2cc(F)ccc2Cl)c2c(NC(=O)C3OCCc4ccccc43)cc(-c3ccc4ncnn4c3)cc21 (centres unmarked) [Compound I-1939] | 1 to 10
C[S+]([O-])c1cc(-c2ccc3ncnn3c2)cc2c1C(c1cc(F)ccc1Cl)NC2=O (centres unmarked) [Compound I-1940] | 10 to 100
CS(=O)(=O)c1cc(-c2ccc3ncnn3c2)cc2c1C(c1cc(F)ccc1Cl)NC2=O (centres unmarked) [Compound I-1941] | 10 to 100
O=C1NC(c2cc(F)ccc2Cl)c2c1cccc2-c1nc2c(F)cc(C(F)(F)F)cc2[nH]1 (centres unmarked) [Compound I-1944] | ≤ 0.1
NCc1cc(-c2ccc3ncnn3c2)cc2c1C(c1cc(F)ccc1Cl)NC2=O (centres unmarked) [Compound I-1950] | 10 to 100
CN1C(=O)NC(c2cc(F)ccc2Cl)c2c(NC(=O)c3cc(F)cc(C(F)(F)F)c3)cccc21 (centres unmarked) [Compound I-1951] | 1 to 10
CN1CCN(c2cc(-c3ccc4ncnn4c3)cc3c2C(c2cc(F)ccc2Cl)NC3=O)CC1 (centres unmarked) [Compound I-1952] | 10 to 100
O=C(Nc1cc(Br)cc2c1C(c1cc(F)ccc1Cl)NC2=O)NC1(CC(F)(F)F)CCOCC1 (centres unmarked) [Compound I-1953] | 10 to 100
O=C1NC(c2cc(F)ccc2Cl)c2c(NC(=O)N3CC4CC4(F)C3)cc(Br)cc21 (centres unmarked) [Compound I-1954] | 10 to 100
O=C1NC(c2cc(F)ccc2Cl)c2c(OCc3ccccc3)cc(-c3ccc4ncnn4c3)cc21 (centres unmarked) [Compound I-1955] | 10 to 100
O=C1NC(c2cc(F)ccc2Cl)c2c(NC(=O)C3CCCC(F)C3)cc(-c3ccc4ncnn4c3)cc21 (centres unmarked) [Compound I-1957] | 1 to 10
O=C1NC(c2cc(F)ccc2Cl)c2c(NC3CNCc4ccccc43)cc(-c3ccc4ncnn4c3)cc21 (centres unmarked) [Compound I-1959] | 1 to 10
O=C(CC1CCCC(O)C1)Nc1cc(-c2ccc3ncnn3c2)cc2c1C(c1cc(F)ccc1Cl)NC2=O (centres unmarked) [Compound I-1960] | 10 to 100
Cc1ccccc1C1NCCc2cccc(NC(=O)c3cc(F)cc(C(F)(F)F)c3)c21 (centres unmarked) [Compound I-1962] | 10 to 100
Cc1ccccc1C1NCCc2c(Br)ccc(NC(=O)c3cc(F)cc(C(F)(F)F)c3)c21 (centres unmarked) [Compound I-1963] | 10 to 100
O=C1NC(c2cc(F)ccc2Cl)c2c(NC(=O)N3C[C@@H](O)[C@@H](O)C3)cc(-c3ccc4ncnn4c3)cc21 (some centres unmarked) [Compound I-1965] | 10 to 100
O=C1NC(c2cc(F)ccc2Cl)c2c(NC(=O)C34CCC(CC3)O4)cc(-c3ccc4ncnn4c3)cc21 (centres unmarked) [Compound I-1966] | 10 to 100
O=C(Nc1cccc2c1C(C1(O)CCCCC1)NC2=O)c1cc(F)cc(C(F)(F)F)c1 (centres unmarked) [Compound I-1967] | 10 to 100
